Paper PMC9697025, “Discovery of N-Containing (-)-Borneol Esters as Respiratory Syncytial Virus Fusion Inhibitors” (Pharmaceuticals, 2022)
Where two headings read alike, the source gives them in different places. Marks after values point to notes of the source that are not given here.

Experiments:
RSV A strain A2 = assay: In vitro antiviral assay against RSV A strain A2 in HEp-2 cells (ELISA, virus titer); type: cell-based, respiratory syncytial virus; conditions: for IC50: RSV A strain A2 in HEp-2 cells, mean ± SD
rVSV-ΔG-MarV-GP = conditions: CC50/IC50MarV-GP, HEK293T cells ref 12,13; cited from earlier work
rVSV-ΔG-EboV-GP = conditions: CC50/IC50EboV-GP, HEK293T cells ref 12,13; cited from earlier work
[1] = tested on: A/Puerto Rico/8/34 (H1N1) virus; set-up: method as in PMID 30108810; conditions: CC50/IC50H1N1, A/Puerto Rico/8/34 (H1N1) ref 15; cited from earlier work
Vaccinia virus = conditions: CC50/IC50VACV ref 16; cited from earlier work
pSARS-CoV-2-S = tested on: pSARS-CoV-2-S; set-up: method as in PMID 35746766; conditions: CC50/IC50pSARS-CoV-2-S, pseudovirus ref 14; cited from earlier work
[2] = MTT cytotoxicity assay with non-infected HEp2 cells; conditions: human
RSV = assay: Temperature shift assay (virus attachment at 4 °C vs post-binding); conditions: unbound virus washed away, compound added before shift to 37 °C
in vitro = conditions: human
SARS-CoV-2 = tested on: SARS-CoV-2; set-up: method as in PMID 35746766; conditions: CC50/IC50SARS-CoV-2, against various SARS-CoV-2 virus strains ref 14; cited from earlier work
[3] = human respiratory syncytial virus, HEp-2, 50% decrease in virus replication

Row | SMILES | SI (RSV A strain A2) | IC50 (RSV A strain A2; [3]) [µM] | SIMarV-GP (rVSV-ΔG-MarV-GP) | SIEboV-GP (rVSV-ΔG-EboV-GP) | SIH1N1 [1] | SIVACV (Vaccinia virus) | SIpSARS-CoV-2-S (pSARS-CoV-2-S) | CC50 at 24 h [2] [µM] | effect on viral titer, time-of-addition (RSV A strain; compound added at 1 h post infection) | inhibitory activity, time-of-addition (RSV A strain; compound added at later time points (after 2 h post infection)) | time of addition up to which antiviral activity was maintained (RSV A strain; post infection) | anti-RSV activity, temperature shift conditions (B) (RSV) | IC50 (RSV A strain A2; 50% decrease in virus replication) [µM] | CC50 at 24 h (in vitro) [µM] | SISARS-CoV-2 (SARS-CoV-2) | SI (RSV A strain A2; selectivity index, CC50/IC50 ratio, RSV A2 / HEp-2) | melting point [°C]
1 | CC1(C)[C@H]2CC[C@]1(C)[C@H](OC(=O)CCN1CCOCC1)C2 [Compound 5b] | 15 | 8.5 ± 2.8 | ^a SIMarV-GP = 5 | ^b SIEboV-GP = 36 | ^c SIH1N1 = 45 | ^d SIVACV = 48 | ^e SIpSARS-CoV-2-S = 18 | 127 ± 15.2 | – | – | – | – | – | – | – | – | –
2 | CC1(C)[C@H]2CC[C@]1(C)[C@H](OC(=O)CN1CCOCC1)C2 [Compound 5a] | 83 | 5 ± 1 | ^a SIMarV-GP = 5 | ^b SIEboV-GP = 13 | ^c SIH1N1 = 82 | ^d SIVACV = 56 | ^e SIpSARS-CoV-2-S = 5 | 413 ± 35.1 | significant reduction in viral titer | lost their inhibitory activity | up to 2 h | antiviral activity was maintained | – | – | – | – | –
3 | NC(=O)c1ncn([C@@H]2O[C@H](CO)[C@@H](O)[C@H]2O)n1 [Ribavirin, reference compound] | 50 | 80 | – | – | – | – | – | – | – | – | – | – | 80.1 ± 13.5 | < 4000 | – | – | –
4 | CCCCN(CCCC)CCC(=O)OC1CC2CCC1(C)C2(C)C (stereo not drawn) [IV (n=2)] | – | – | ^a SIMarV-GP = 15 | – | ^c SIH1N1 = 12 | – | ^e SIpSARS-CoV-2-S = 29 | – | – | – | – | – | – | – | SISARS-CoV-2 = 6–102 * | – | –
5 | CCCCN(CCCC)CC(=O)OC1CC2CCC1(C)C2(C)C (stereo not drawn) [IV (n=1)] | – | – | ^a SIMarV-GP = 6 | – | ^c SIH1N1 = 16 | – | ^e SIpSARS-CoV-2-S = 10 | – | – | – | – | – | – | – | SISARS-CoV-2 = 11–40 * | – | –
6 | CC1(C)[C@H]2CC[C@]1(C)[C@H](OC(=O)CCN1CCN(c3ccccc3)CC1)C2 [Compound 14b, (1S,2R,4S)-1,7,7-Trimethylbicyclo [2.2.1]heptan-2-yl 3-(4-phenylpiperazin-1-yl)propanoate] | – | 8.1 ± 0.9 | – | – | – | – | – | 366 ± 25.8 | – | – | – | – | – | – | – | 45 | 83
